Experimental data: patent publication US20240003914A1 (THE SCRIPPS RESEARCH INSTITUTE, priority 2020, published 2024)

Assays:
C57BL/6 mice = assay: Whole blood NAD levels after oral treatment; assay type: in vivo, mouse; conditions: 6 mg/kg SR005 or 100 mg/kg NAM, normalized by baseline (FIG. 8)
Text: Blood was collected and NAD detected as described in FIGS. 1A-1C. NAD values were normalized by baseline level for each mouse. Each line represents data for one mouse.

NADases = assay: NAD protection from degradation by NADases in brain homogenate; assay type: biochemical, mouse; conditions: inhibitor added to aliquots of a brain sample after homogenisation; duplicate samples (FIG. 1F)
Procedure: Brain homogenates are disrupted and clarified by sonication (0.5 second per cycle, 45 cycles, 50% power) followed by centrifugation at 12,000 rpm, RT for 5 minutes. Supernatants are collected and fractionated using Amicon Ultra-2 centrifugal units with a 30 kDa cut-off. Flow-through is collected and NAD is measured using a cycling assay (NAD+/NADH-GloTM (Promega). The NAD+/NADH-GloTM assay is a bioluminescent, homogeneous assay for the detection of total NAD metabolite levels comprising the oxidized and reduced forms of NAD (NAD+ and NADH, respectively). An NAD cycling enzyme is used to convert NAD+ to NADH. In the presence of NADH, the provided reductase enzyme reduces a proluciferin reductase substrate to form luciferin. Luciferin is then quantified using Ultra-Glo recombinant luciferase, and the light signal produced is proportional to the amount of NAD+ and NADH in the sample. Cycling between NAD+ and NADH by the NAD cycling enzyme and reductase increases assay sensitivity and provides selectivity for nonphosphorylated NAD+ and NADH compared to the phosphorylated forms NADP+ and NADPH. Reading is performed between 10 and 50 minutes during the linear increase of the signal in a luminescence reader. NAD values are normalized by total protein concentrations. […] Error bars of duplicate samples are shown. […] Error bars of duplicate samples are shown.

For `NC(=O)c1cccnc1` [NAM, nicotinamide], the “blood NAD levels after treatment” value (C57BL/6 mice) was “Increased blood NAD levels”.

In the case of `O=c1cc(-c2ccc(O)cc2)oc2cc(O)cc(O)c12` [apigenin], the “NAD protection from degradation by NADases” value (NADases) was “absence of protection”.
